Test results taken from patent publication US20240261291A1, “Ophthalmic Compositions and/or Methods for Presbyopia, Mydriasis and/or Ocular Discomfort Management” (Brien Holden Vision Institute Limited, priority 2021, published 2024).

Legend:
[1] = tested on: pupillary diameter of the eye; test: Pupillary diameter over 2 hours after a single eye drop of caffeine 2 wt. % in water, 5 individuals (Grand Seiko autorefractor); type: in vivo, human; settings: for average decrease in pupillary diameter compared to baseline: 5 individuals; for maximal decrease in pupillary diameter: largest among individuals
Procedure: FIG. 1 is a schematic of the pupil diameter of eyes prescribed with caffeine 2% over time.
FIG. 1 illustrates the baseline pupillary diameter and the pupillary diameter over 2 hours in a group of 5 individuals (3 males and 2 females, age ranging from 31 to 45 yrs) prescribed with an ophthalmic composition comprising caffeine. A topical ophthalmic composition comprising caffeine 2 wt. % in water was instilled (as a single eye drop in the range of from 0.025 mL to 0.075 ml, such as an average single drop size of about 0.05 mL) in one eye of each of the individuals. Pupillary diameter at baseline and at subsequent time points was captured using a Grand Seiko autorefractor for 11 secs and data summarized. The room illumination was standardized at 150 to 200 lux. As observed from FIG. 1, there was a decrease in pupillary diameter post instillation. On average, compared to baseline, the decrease in pupillary diameter at 30 mins and 1 hr post instillation was 0.3 mm and was approximately 0.2 mm at 2 hrs. There was some variation between the various individuals, however the maximal […] in pupillary diameter at 30 mins was 0.4 mm, was approximately 0.8 mm at 1 hr and was approximately 0.6 mm at 2 hrs. Such an ophthalmic composition, as disclosed herein, can be used according to the methods provided herein to reduce the pupillary diameter of a treated eye of a subject and be effective in treating or managing symptoms related to presbyopia and/or mydriasis and/or eyes with disorders requiring light modulation such as one or more of vision disturbances.

[2] = tested on: pupillary diameter of the eye; test: Reversal of Tropicamide 1% mydriasis by caffeine 2.0 w/v % in saline, left eye only, person (Grand Seiko autorefractor); type: in vivo, human; settings: for Pupillary diameter Left eye: given 50 mins after Tropicamide 1%
Procedure: FIG. 4 illustrates that difference in pupil diameter in the right and left eyes of an individual, wherein Tropicamide 1% was instilled in both eyes and approximately 50 minutes later, an ophthalmic composition comprising Caffeine at 2 w/v. % was instilled in the left eye only.
The following Table 3 illustrates the pupil diameter of a person. An aqueous solution of 1% Tropicamide was instilled in both eyes. Pupillary diameter was measured over a 15 second interval with a Grand Seiko autorefractor with the individual fixating at an object positioned 1 meter away. Pupillary diameter was dynamically sampled at multiple time points over the 15 second interval. Pupillary diameters for both eyes were measured prior to instillation (baseline), soon after instillation of 1% Tropicamide and then 20 minutes and 50 minutes post instillation. […] At this time point, a single drop (0.05 mL) of 2.0 w/v % Caffeine in Saline (0.9 wt. % NaCl) (composition 1) was instilled in the left eye only. The individual was monitored 30 minutes, 60 minutes, 2 hrs, 4 hrs and 6.5 hrs from instillation of Caffeine.
FIG. 4 illustrates the difference in pupillary diameter between the right and left eyes 4 hrs from the instillation of Tropicamide 1% in both eyes and […] from instillation of Caffeine 2 w/v % in the left eye.

Cn1c(=O)c2c(ncn2C)n(C)c1=O [Caffeine, caffeine (1,7 methylxanthine)]
average decrease in pupillary diameter compared to baseline ([1]; 30 mins post instillation, 150 to 200 lux): 0.3 mm
maximal decrease in pupillary diameter ([1]; 30 mins): 0.4 mm
average decrease in pupillary diameter compared to baseline ([1]; 1 hr post instillation): 0.3 mm
maximal decrease in pupillary diameter ([1]; 1 hr): approximately 0.8 mm
average decrease in pupillary diameter compared to baseline ([1]; 2 hrs post instillation): approximately 0.2 mm
maximal decrease in pupillary diameter ([1]; 2 hrs): approximately 0.6 mm
Difference in pupillary diameter (Right − Left) ([2]; 30 mins post instillation of Caffeine 2 w/v % in left eye, both eyes Tropicamide 1%): 0.5 mm
Difference in pupillary diameter (Right − Left) ([2]; 60 mins post instillation of Caffeine 2 w/v % in left eye, both eyes Tropicamide 1%): 0.7 mm
Difference in pupillary diameter (Right − Left) ([2]; 2 hrs post instillation of Caffeine 2 w/v % in left eye, both eyes Tropicamide 1%): 0.8 mm
difference between the pupils ([2]; at 1 and 2 hours following instillation of Caffeine in the left eye, both eyes Tropicamide 1%): approximately 0.8 mm
left eye pupil diameter ([2]; left eye (Tropicamide 1% then Caffeine 2 w/v %), 6.5 hrs from the baseline visit, returned to normal): 3.8 mm
Pupillary diameter Left eye ([2]; left eye, 30 mins post instillation of Caffeine 2 w/v %): 6.8 mm
Pupillary diameter Left eye ([2]; left eye, 60 mins post instillation of Caffeine 2 w/v %): 6.5 mm
Pupillary diameter Left eye ([2]; left eye, 2 hrs post instillation of Caffeine 2 w/v %): 6.3 mm
left eye pupillary diameter ([2]; left eye, 3 hrs from instillation of Caffeine 2 w/v %, 4 hrs from Tropicamide 1% (FIG. 4)): 5.9 mm
